Measurements reported in patent US20100120700A1, “METHODS AND COMPOSITIONS FOR TREATING CERVICAL CANCER” (priority 2000, published 2010).
“And” between values parts separate entries of the source, which are not always exact repeats. Equal entries are not always repeated.

Tests used:
Assay in all cases: G assay PDZ-PL binding
Settings in all cases: peptide 10 uM, protein 5
[1] = target: T1, Syntrophin beta 2 domain 1 (Homo sapiens, UniProt Q13425)
T1 construct: made in house; host or cells: E. coli (DH5alpha, BL21 or JM109)
Experimental: (§1) (1) A PDZ-domain polypeptide is bound to a surface, e.g. a protein binding surface. In a preferred embodiment, a GST/PDZ fusion protein containing one or more PDZ domains is bound to a polystyrene 96-well plate. […] In one embodiment, the GST/PDZ fusion protein is bound via an anti-GST antibody that is coated onto the 96-well plate. Adequate binding to the plate can be achieved when: • a. 100 uL per well of 5 ug/mL goat anti-GST polyclonal antibody (Pierce) in PBS is added to a polystyrene 96-well plate (e.g., Num Polysorb) at 4° C. for 12 hours. • b. The plate is blocked by addition of 200 uL per well of PBS/BSA for 2 hours at 4° C. • c. The plate is washed 3 times with PBS. • d. 50 uL per well of 5 ug/mL GST/PDZ fusion protein) or, as a negative control, GST polypeptide alone (i.e. not a fusion protein) in PBS/BSA is added to the plate for 2 hours at 4° C. • e. The plate is again washed 3 times with PBS.
(§2) (2) Biotinylated PL peptides are allowed to react with the surface by addition of 50 uL per well of 20 uM solution of the biotinylated peptide in PBS/BSA for 10 minutes at 4° C., followed by an additional 20 minute incubation at 25° C.
(§3) (3) The binding of the biotinylated peptide to the GST/PDZ fusion protein surface can be detected using a variety of methods and detectors known to one of skill in the art. In one embodiment, 100 uL per well of 0.5 ug/mL streptavidin-horse radish peroxidase (HRP) conjugate dissolved in BSA/PBS is added and allowed to react for 20 minutes at 4° C. The plate is then washed 5 times with 50 mM Tris pH 8.0 containing 0.2% Tween 20, and developed by addition of 100 uL per well of HRP-substrate solution (TMB, Dako) for 20 minutes at room temperature (RT). The reaction of the HRP and its substrate is terminated by addition of 100 uL per well of 1M sulfuric acid, and the absorbance of each well of the plate is read at 450 nm.
(§4) (4) Specific binding of a PL peptide and a PDZ domain polypeptide is determined by comparing the signal from the well(s) in which the PL peptide and PDZ domain polypeptide are combined, with the background signal(s). The background signal is the signal found in the negative control(s). Typically a specific or selective reaction will be at least twice background signal, more typically more than 5 times background, and most typically 10 or more times the background signal. In addition, a statistically significant reaction will involve multiple measurements of the reaction with the signal and the background differing by at least two standard errors, more typically four standard errors, and most typically six or more standard errors. Correspondingly, a statistical test (e.g. a T-test) comparing repeated measurements of the signal with-repeated measurements of the background will result in a p-value<0.05, more typically a p-value<0.01, and most typically a p-value<0.001 or less. As noted, in an embodiment of the “G” assay, the signal from binding of a given PL peptide to immobilized (surface bound) GST polypeptide alone is one suitable negative control (sometimes referred to as “B 1”). Because all measurement are done in multiples (i.e. at least duplicate) the arithmetic mean (or, equivalently, average.) of several measurements is used in determining the binding, and the standard error of the mean is used in determining the probable error in the measurement of the binding. The standard error of the mean of N measurements equals the square root of the following: the sum of the squares of the difference between each measurement and the mean, divided by the product of (N) and (N−1). Thus, in one embodiment, specific binding of the PDZ protein to the platebound peptide is determined by comparing the mean signal (“mean S”) and standard error of the signal (“SE”) for a particular PL-PDZ combination with the mean B1. […]

[2] = target: T2, KIAA0382 domain 1 (Homo sapiens, UniProt Q9NZN5)
T2 construct: made in house; host or cells: E. coli (DH5alpha, BL21 or JM109), vector pGEX-3X
Experimental: as §1, §2, §3, §4

[3] = target: T3, KIAA1284 domain 1 (Homo sapiens, UniProt Q9ULD6)
T3 construct: made in house; host or cells: E. coli (DH5alpha, BL21 or JM109)
Experimental: as §1, §2, §3, §4

[4] = target: T4, Serine Protease domain 1 (Homo sapiens, UniProt O43464)
T4 construct: made in house; host or cells: E. coli (DH5alpha, BL21 or JM109)
Experimental: as §1, §2, §3, §4

[5] = target: T5, KIAA1526 #125.1 domain 1 (Homo sapiens, UniProt Q9P202)
T5 construct: made in house; host or cells: E. coli (DH5alpha, BL21 or JM109)
Experimental: as §1, §2, §3, §4

[6] = target: T6, NOS1 domain 1 (Homo sapiens, UniProt P29475)
T6 construct: made in house; host or cells: E. coli (DH5alpha, BL21 or JM109)
Experimental: as §1, §2, §3, §4

[7] = target: T7, Magi2 domain 5 (Homo sapiens, UniProt Q86UL8)
T7 construct: made in house; host or cells: E. coli (DH5alpha, BL21 or JM109), vector pGEX-3X
Experimental: as §1, §2, §3, §4

[8] = target: T8, NeDLG domain 3 (Homo sapiens, UniProt Q92796)
T8 construct: made in house; host or cells: E. coli (DH5alpha, BL21 or JM109), vector pGEX-3X
Experimental: as §1, §2, §3, §4

[9] = target: T9, KIAA1719 domain 3 (Homo sapiens, UniProt Q9C0E4)
T9 construct: made in house; host or cells: E. coli (DH5alpha, BL21 or JM109)
Experimental: as §1, §2, §3, §4

[10] = target: T10, INADL domain 4 (Homo sapiens, UniProt Q8NI35)
T10 construct: made in house; host or cells: E. coli (DH5alpha, BL21 or JM109)
Experimental: as §1, §2, §3, §4

[11] = target: T11, novel PDZ gene domain 1 (Homo sapiens, UniProt Q9H5P4)
T11 construct: made in house; host or cells: E. coli (DH5alpha, BL21 or JM109)
Experimental: as §1, §2, §3, §4

[12] = target: T12, NeDLG domain 1, 2 (Homo sapiens, UniProt Q92796)
T12 construct: the DNA portion cloned represents the PDZ domains and the cDNA portion located between individual domains; made in house; host or cells: E. coli (DH5alpha, BL21 or JM109)
Experimental: as §1, §2, §3, §4

[13] = target: T13, SITAC-18 domain 2 (Homo sapiens, UniProt Q9H190)
T13 construct: made in house; host or cells: E. coli (DH5alpha, BL21 or JM109)
Experimental: as §1, §2, §3, §4

[14] = target: T14, ZO-2 domain 1 (Homo sapiens, UniProt Q9UDY2)
T14 construct: made in house; host or cells: E. coli (DH5alpha, BL21 or JM109), vector pGEX-3X
Experimental: as §1, §2, §3, §4

T12 sequence (Q92796 129-315 limits assumed): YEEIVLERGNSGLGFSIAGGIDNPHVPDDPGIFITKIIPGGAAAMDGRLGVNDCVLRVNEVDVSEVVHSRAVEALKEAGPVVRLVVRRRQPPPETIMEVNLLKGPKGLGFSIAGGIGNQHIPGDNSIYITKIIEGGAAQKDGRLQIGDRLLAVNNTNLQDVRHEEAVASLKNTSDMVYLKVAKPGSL
T5 sequence (Q9P202 130-232): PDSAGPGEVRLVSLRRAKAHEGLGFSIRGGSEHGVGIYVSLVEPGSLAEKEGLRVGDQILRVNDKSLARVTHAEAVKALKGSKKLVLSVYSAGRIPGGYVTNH
T2 sequence (Q9NZN5 with tags, fused parts or gaps): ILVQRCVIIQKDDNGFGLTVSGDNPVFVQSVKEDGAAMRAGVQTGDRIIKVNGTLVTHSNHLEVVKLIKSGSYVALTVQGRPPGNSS
T8 sequence (Q92796 with tags, fused parts or gaps): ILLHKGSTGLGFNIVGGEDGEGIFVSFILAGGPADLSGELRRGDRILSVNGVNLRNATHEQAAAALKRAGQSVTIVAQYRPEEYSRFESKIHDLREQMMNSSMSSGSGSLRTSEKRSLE
T1 sequence (Q13425 with tags, fused parts or gaps): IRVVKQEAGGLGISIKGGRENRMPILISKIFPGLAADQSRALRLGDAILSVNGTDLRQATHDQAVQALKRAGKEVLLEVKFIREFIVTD
T14 sequence (Q9UDY2 27-122): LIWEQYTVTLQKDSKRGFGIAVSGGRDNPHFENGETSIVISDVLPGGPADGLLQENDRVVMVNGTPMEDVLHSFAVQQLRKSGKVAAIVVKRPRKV
T10 sequence (Q8NI35 with tags, fused parts or gaps): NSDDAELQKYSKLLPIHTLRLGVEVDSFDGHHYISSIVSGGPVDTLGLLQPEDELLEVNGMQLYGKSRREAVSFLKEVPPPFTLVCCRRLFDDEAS
T7 sequence (Q86UL8 1134-1231): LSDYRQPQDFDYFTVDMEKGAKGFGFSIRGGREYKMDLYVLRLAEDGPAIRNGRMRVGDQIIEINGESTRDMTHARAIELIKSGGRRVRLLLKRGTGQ
T11 sequence (Q9H5P4 with tags, fused parts or gaps): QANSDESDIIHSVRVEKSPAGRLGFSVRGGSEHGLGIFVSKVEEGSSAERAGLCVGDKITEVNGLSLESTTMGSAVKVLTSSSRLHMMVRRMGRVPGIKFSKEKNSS
T13 sequence (Q9H190 with tags, fused parts or gaps): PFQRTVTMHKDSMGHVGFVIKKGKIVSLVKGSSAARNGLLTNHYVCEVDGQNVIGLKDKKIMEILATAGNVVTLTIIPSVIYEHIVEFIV
T6 sequence (P29475 11-100): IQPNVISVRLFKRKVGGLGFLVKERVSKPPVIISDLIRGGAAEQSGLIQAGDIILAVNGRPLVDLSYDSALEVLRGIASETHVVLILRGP
T9 sequence (Q9C0E4 with tags, fused parts or gaps): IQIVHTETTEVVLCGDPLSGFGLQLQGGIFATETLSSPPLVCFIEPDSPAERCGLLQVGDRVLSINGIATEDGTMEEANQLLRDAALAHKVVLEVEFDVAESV
T4 sequence (O43464 344-452): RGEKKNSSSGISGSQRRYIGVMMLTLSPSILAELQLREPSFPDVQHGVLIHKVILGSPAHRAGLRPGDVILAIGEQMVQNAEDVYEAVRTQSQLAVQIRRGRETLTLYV
T3 sequence (Q9ULD6 159-271): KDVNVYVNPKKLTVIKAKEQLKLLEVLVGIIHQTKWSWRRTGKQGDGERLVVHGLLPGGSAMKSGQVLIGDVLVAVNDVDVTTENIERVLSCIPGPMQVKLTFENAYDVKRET

## 20 mer peptide corresponding to the C-terminus of HPV16 E6 (PDZ ligand), biotinylated in binding assays; ends SSRTRRETQL (SEQ ID NO: 13) [HPV E6 #16]
[1]; A450 nm
  Ave OD: 1.1585 and 1.0325
[1]; vs GST only well
  OD S/N: 5.81 and 5.35
[2]; A450 nm
  Ave OD: 0.712 and 0.6995
[2]; vs GST only well
  OD S/N: 3.61 and 2.66
[3]; A450 nm
  Ave OD: 0.473
[3]; vs GST only well
  OD S/N: 2.72
[4]; A450 nm
  Ave OD: 0.3425
[4]; vs GST only well
  OD S/N: 1.55
[5]; A450 nm
  Ave OD: 1.379 and 0.7665
[5]; vs GST only well
  OD S/N: 6.69 and 3.57
[6]; A450 nm
  Ave OD: 0.4775
[6]; vs GST only well
  OD S/N: 2.88
[7]; A450 nm
  Ave OD: 0.651
[7]; vs GST only well
  OD S/N: 3.93
[8]; A450 nm
  Ave OD: 0.632 and 0.5225
[8]; vs GST only well
  OD S/N: 3.69 and 2.49
[9]; A450 nm
  Ave OD: 0.346
[9]; vs GST only well
  OD S/N: 1.65
[10]; A450 nm
  Ave OD: 0.357
[10]; vs GST only well
  OD S/N: 2.15
[11]; A450 nm
  Ave OD: 0.5455
[11]; vs GST only well
  OD S/N: 1.89
[12]; A450 nm
  Ave OD: 3.401 and 3.118
[12]; vs GST only well
  OD S/N: 19.83 and 17.13
[13]; A450 nm
  Ave OD: 0.484
[13]; vs GST only well
  OD S/N: 2.46
[14]; A450 nm
  Ave OD: 0.3415 and 0.622
[14]; vs GST only well
  OD S/N: 2.11 and 2.56
